In PMC4865847, “Putative histidine kinase inhibitors with antibacterial effect against multi-drug resistant clinical isolates identified by in vitro and in silico screens” (Scientific Reports, 2016):
≈ marks a conversion by molar mass, not a printed value. Where “and” joins values, the source holds several entries; their conditions need not be identical. Equal entries are not always repeated. Where two headings read alike, the source gives them in different places. Marks after values point to notes of the source that are not given here.

Tests used:
[1] = molecular target: T1, E. coli PhoR (PhoR^E) (Escherichia coli, UniProt P08400); experiment: In vitro autophosphorylation kinase assay with γ-32P-ATP, PhoR^E; assay type: biochemical; conditions: for IC50: autophosphorylation, one time point (30 sec), 10% DMSO
T1 construct: The catalytic portion (DHp and CA domain) of E. coli PhoR (PhoR^E); made in house; host or cells: E. coli RIL
Outline: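 Histidine kinase (0.12 mg/ml, ≈4 μM) incubated with up to 20 mM fragment in 50 mM Tris HCl pH 8.5, 50 mM KCl, 5 mM MgCl2, 0.5 mM EDTA, 0.1 mM DTT; started with 0.1 μCi/μl γ-32P-ATP (0.03–0.06 μM ATP final). Phosphoprotein quantified by SDS-PAGE and phosphor-imaging, curve-fitted; DMSO controls.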

[2] = system: Staphylococcus aureus; experiment: Antibacterial susceptibility testing (MIC/MBC), S. aureus; assay type: cell-based
Protocol: (§1) Minimal inhibitory concentrations (MICs) were determined following a standard double-dilution method. […] For S. pneumoniae MICs were determined by adapting the standard double-dilution method to anaerobic conditions and of this microorganism (use of Todd Hewitt Yeast extract with 200 U/mL of catalase and continuous monitoring of growth).

[3] = system: Escherichia coli; experiment: Antibacterial susceptibility testing (MIC/MBC), E. coli; assay type: cell-based; conditions: Escherichia coli
Protocol: as §1

[4] = system: Streptococcus suis; experiment: Antibacterial susceptibility testing (MIC), S. suis; assay type: cell-based; conditions: Streptococcus suis, read-out: MIC Streptococcus suis 3881/S10, strain 3881/S10
Protocol: (§2) Bacterial strains used in this study for antibacterial susceptibility testing (Table S5) were propagated using standard microbiological procedures. Minimal inhibitory concentrations (MICs) were determined following a standard double-dilution method. MICs were recorded as the lowest concentration of the compound where no visible growth was observed. After plating the dilutions around the MIC or growing them in fresh MH media, minimal bactericidal concentration (MBC) was recorded as the lowest concentration of the compound at which no colonies were formed or no growth was observed, respectively. For S. pneumoniae MICs were determined by adapting the standard double-dilution method to anaerobic conditions and of this microorganism (use of Todd Hewitt Yeast extract with 200 U/mL of catalase and continuous monitoring of growth).

[5] = system: Acinetobacter baumannii; experiment: Antibacterial susceptibility testing (MIC), A. baumannii; assay type: cell-based
Protocol: as §2

[6] = system: Stenotrophomonas maltophilia; experiment: Antibacterial susceptibility testing (MIC), S. maltophilia; assay type: cell-based
Protocol: as §2

[7] = system: Pseudomonas aeruginosa; experiment: Antibacterial susceptibility testing (MIC), P. aeruginosa; assay type: cell-based; conditions: strain ATCC 27853; for MIC: Pseudomonas aeruginosa, ATCC27853
Protocol: as §2

[8] = Hemolysis assay; assay type: cell-based; conditions: human
Protocol: Hemolytic activity against human erythrocytes taken from a healthy donor was measured as previously described. The hemolysis experiments were carried out in accordance with the guidelines of the United Arab Emirates University (UAEU) Research Ethics Review Board. All experimental protocols were approved by the Research Ethics Review Board of UAEU and informed consent was obtained from all donors.

[9] = molecular target: T1, E. coli PhoR (PhoR^E); experiment: Aggregation analysis by native-PAGE, PhoR^E; conditions: 2 mM (S5 and S6 5 mM), 10% DMSO
Protocol: (§3) E. coli PhoR and EnvZ, and S. aureus PhoR ([…], final concentration) were prepared in kinase buffer. […] DMSO in the assays was maintained to a final concentration 10% (v/v). After 30 min of incubation at room temperature Native polyacrylamide gel electrophoresis (Native-PAGE) loading buffer was added and samples loaded. Coomassie blue staining was used for protein visualization.

[10] = molecular target: T2, S. aureus PhoR (PhoR^S) (Staphylococcus aureus, UniProt Q2FXN7); experiment: Aggregation analysis by native-PAGE, PhoR^S; conditions: 2 mM (S5 and S6 5 mM), 10% DMSO
Protocol: as §3

[11] = Solubility in kinase buffer; assay type: physicochemical; conditions: kinase buffer in the presence of 10% DMSO
[12] = molecular target: T2, S. aureus PhoR (PhoR^S); experiment: In vitro autophosphorylation kinase assay with γ-32P-ATP, PhoR^S; assay type: biochemical
Outline: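 ≈4 μM HK incubated with up to 20 mM fragment in 50 mM Tris HCl pH 8.5, 50 mM KCl, 5 mM MgCl2, 0.5 mM EDTA, 0.1 mM DTT; started with γ-32P-ATP (0.03–0.06 μM ATP final). Quenched with SDS sample buffer/EDTA, run on SDS-PAGE unheated, phosphoprotein quantified by phosphor-imaging.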

[13] = system: Streptococcus pneumoniae; experiment: Antibacterial susceptibility testing (MIC), S. pneumoniae; assay type: cell-based; conditions: strain 49619
Protocol: as §2

[14] = Staphylococcus aureus, ATCC reference strain 25293, read-out: MIC S. aureus 25293
[15] = Staphylococcus aureus, DSM20231, strain DSM 20231, read-out: MIC S. aureus DSM 20231
[16] = Staphylococcus aureus, MRSA clinical isolate 145/08, read-out: MIC S. aureus 145/08
[17] = Staphylococcus aureus, MRSA clinical isolate 274/08, read-out: MIC S. aureus 274/08
[18] = Staphylococcus aureus, MRSA, MRSA clinical isolate T4/6, read-out: MIC S. aureus T4/6
[19] = Staphylococcus aureus, MRSA, MRSA clinical isolate V4180, read-out: MIC S. aureus V4180
[20] = ATCC25276, strain ATCC 25276, read-out: MIC E. coli ATCC 25276
[21] = strain CFT 073, read-out: MIC E. coli CFT 073
[22] = MDR clinical isolate NM8, read-out: MIC A. baumannii NM8
[23] = clinical isolate B32/1, read-out: MIC S. maltophilia B32/1

T2 sequence (Q2FXN7 entry or part of it): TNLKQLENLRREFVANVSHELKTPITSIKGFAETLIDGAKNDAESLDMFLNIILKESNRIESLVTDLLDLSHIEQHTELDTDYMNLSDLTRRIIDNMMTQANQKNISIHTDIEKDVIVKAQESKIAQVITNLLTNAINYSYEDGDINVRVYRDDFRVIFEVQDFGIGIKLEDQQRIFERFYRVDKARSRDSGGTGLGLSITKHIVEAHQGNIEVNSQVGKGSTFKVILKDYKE
T1 sequence (P08400 210-425): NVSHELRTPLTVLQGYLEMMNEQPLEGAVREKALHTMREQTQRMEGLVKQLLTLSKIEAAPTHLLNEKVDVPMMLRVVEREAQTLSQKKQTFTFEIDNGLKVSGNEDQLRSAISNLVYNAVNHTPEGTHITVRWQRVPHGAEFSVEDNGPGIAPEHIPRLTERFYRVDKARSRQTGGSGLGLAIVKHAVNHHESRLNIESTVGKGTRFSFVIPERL

Row | SMILES | MIC [2, 14] [µg/mL] | MIC [2, 15] [µg/mL] | MIC [2, 16] [µg/mL] | MIC [2, 17] [µg/mL] | MIC [2, 18] [µg/mL] | MIC [2, 19] [µg/mL] | MIC [3, 20] [µg/mL] | MIC [3, 21] [µg/mL] | MIC [4] [µg/mL] | MIC [5, 22] [µg/mL] | MIC [6, 23] [µg/mL] | MIC [7] [µg/mL] | HC50 [8] [µg/mL] | HK aggregation, PhoR^E [9] | HK aggregation, PhoR^S [10] | further results
1 | Nc1nc(-c2ccc(Br)cc2)cs1 [F1, 4-(4-bromophenyl)-1,3-thiazol-2-amine] | 125 (≈ 490 µM) | 25 (≈ 98 µM) | 125 (≈ 490 µM) | 125 (≈ 490 µM) | 125 (≈ 490 µM) | 125 (≈ 490 µM) | > 500 | > 500 | > 500 | > 500 | > 500 | > 500 | > 500 | do not cause HK aggregation | do not cause HK aggregation | IC50 ([1]; read-out: IC50 PhoR^E): ~2000 µM and 2000 µM; MBC ([2]; Staphylococcus aureus, DSM20231, strain DSM 20231, read-out: MBC S. aureus DSM 20231): > 500 µg/mL; MIC ([2]; Staphylococcus aureus, MRSA, summary over strains, read-out: MICs for the MRSA strains and S. aureus 25293): 125 to 500 µg/mL (≈ 490 to 1960 µM); solubility in kinase buffer [11]: limited solubility
2 | CC(=O)Nc1cccc(-c2ccccc2Cl)c1 [S1.7, N-[3-(2-chlorophenyl)phenyl]acetamide] | 125 (≈ 509 µM) | 250 (≈ 1020 µM) | > 500 | 250 (≈ 1020 µM) | 250 (≈ 1020 µM) | > 500 | > 500 | > 500 | > 500 | > 500 | > 500 | > 500 | > 500 | do not cause HK aggregation | do not cause HK aggregation | IC50 ([12]; IC50 PhoR^S, autophosphorylation, one time point (30 sec), 10% DMSO): 1000 µM and ~1000 µM; inhibition at 2000 µM ([12]; read-out: inhibition of PhoR^S autophosphorylation): > 75%; inhibition at 2000 µM ([1]; 2 mM, 30 sec, compared to negative control): > 40%; IC50 ([1]; IC50 PhoR^E): 100 µM and ~100 µM; MIC ([2]; Staphylococcus aureus, MRSA clinical isolate 127/08, read-out: MIC S. aureus 127/08): > 500 µg/mL; MIC ([2]; Staphylococcus aureus, MRSA, MRSA clinical isolate S908, read-out: MIC S. aureus S908): > 500 µg/mL; MIC ([2]; Staphylococcus aureus, MRSA, summary over susceptible MRSA clinical isolates, read-out: MICs for MRSA strains): ≥ 250 µg/mL; MIC S. aureus DSM 20231 ([2]; strain DSM 20231): 250^# μg/ml; bacteriostatic or bactericidal for S. aureus DSM 20231 ([2]; strain DSM 20231): bacteriostatic; MIC [13]: 128 µg/mL (≈ 521 µM); MIC ([5]; MDR clinical isolate NM35, read-out: MIC A. baumannii NM35): > 500 µg/mL; MIC ([5]; MDR clinical isolate NM75, read-out: MIC A. baumannii NM75): > 500 µg/mL; MIC ([5]; MDR clinical isolate NM109, read-out: MIC A. baumannii NM109): > 500 µg/mL; MIC ([5]; MDR clinical isolate NM124, read-out: MIC A. baumannii NM124): > 500 µg/mL; MIC ([6]; clinical isolate B5/5, read-out: MIC S. maltophilia B5/5): > 500 µg/mL; MIC ([6]; clinical isolate B6/2, read-out: MIC S. maltophilia B6/2): > 500 µg/mL; MIC P. aeruginosa ATCC 27853 [7]: >500 µg/mL; solubility ([11]; kinase buffer with 10% DMSO, pH 8.5, aqueous with cosolvent or surfactant or cyclodextrin, kinetic from dmso stock, read-out: concentration above which not soluble / reduced solubility in kinase buffer): ≤ 1000 µM
